In US20140120232A1, “ACID TASTE/ACID SMELL-REDUCING AGENT” (T. HASEGAWA CO., LTD., priority 2011, published 2014):

Assay: Sensory evaluation of Vermont drink containing the agent
Conditions: ten panels
Summary of the method: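 Tridecadienal or tridecatrienal isomers added at various concentrations to a Vermont-flavoured drink (apple-cider vinegar, honey, liquid sugar, citric acid, trisodium citrate, 100 mL total). Ten panelists assessed acid taste/acid smell and aldehyde-type off-odour, and the concentration giving the best acid taste/smell quality was selected.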

## CCCCC/C=C\C/C=C\CCC=O [(Z,Z)-4,7-tridecadienal]
0.005 ppt
  A: number of panels, acid taste/acid smell extreme and cause irritation: 10
  B: number of panels, acid taste/acid smell slightly strong and slightly cause irritation: 0
  C: number of panels, acid taste/acid smell slightly unpleasant: 0
  Flavor judgment: number of panels who judged acid taste/acid smell quality the highest: 0
  N: number of panels, irritation of acid reduced to give a mild acid taste: 0
  X: number of panels, acid taste reduced but piercing odor characteristic to aldehydes unpleasant: 0
0.02 ppt
  A: number of panels, acid taste/acid smell extreme and cause irritation: 8
  B: number of panels, acid taste/acid smell slightly strong and slightly cause irritation: 1
  C: number of panels, acid taste/acid smell slightly unpleasant: 1
  Flavor judgment: number of panels who judged acid taste/acid smell quality the highest: 0
  N: number of panels, irritation of acid reduced to give a mild acid taste: 0
  X: number of panels, acid taste reduced but piercing odor characteristic to aldehydes unpleasant: 0
0.1 ppt
  A: number of panels, acid taste/acid smell extreme and cause irritation: 6
  B: number of panels, acid taste/acid smell slightly strong and slightly cause irritation: 2
  C: number of panels, acid taste/acid smell slightly unpleasant: 2
  Flavor judgment: number of panels who judged acid taste/acid smell quality the highest: 0
  N: number of panels, irritation of acid reduced to give a mild acid taste: 0
  X: number of panels, acid taste reduced but piercing odor characteristic to aldehydes unpleasant: 0
0.2 ppt
  A: number of panels, acid taste/acid smell extreme and cause irritation: 5
  B: number of panels, acid taste/acid smell slightly strong and slightly cause irritation: 3
  C: number of panels, acid taste/acid smell slightly unpleasant: 2
  Flavor judgment: number of panels who judged acid taste/acid smell quality the highest: 0
  N: number of panels, irritation of acid reduced to give a mild acid taste: 0
  X: number of panels, acid taste reduced but piercing odor characteristic to aldehydes unpleasant: 0
0.5 ppt
  A: number of panels, acid taste/acid smell extreme and cause irritation: 1
  B: number of panels, acid taste/acid smell slightly strong and slightly cause irritation: 1
  C: number of panels, acid taste/acid smell slightly unpleasant: 3
  Flavor judgment: number of panels who judged acid taste/acid smell quality the highest: 1
  N: number of panels, irritation of acid reduced to give a mild acid taste: 5
  X: number of panels, acid taste reduced but piercing odor characteristic to aldehydes unpleasant: 0
1 ppb
  A: number of panels, acid taste/acid smell extreme and cause irritation: 0
  B: number of panels, acid taste/acid smell slightly strong and slightly cause irritation: 0
  C: number of panels, acid taste/acid smell slightly unpleasant: 3
  Flavor judgment: number of panels who judged acid taste/acid smell quality the highest: 0
  N: number of panels, irritation of acid reduced to give a mild acid taste: 3
  X: number of panels, acid taste reduced but piercing odor characteristic to aldehydes unpleasant: 4
1 ppt
  A: number of panels, acid taste/acid smell extreme and cause irritation: 0
  B: number of panels, acid taste/acid smell slightly strong and slightly cause irritation: 1
  C: number of panels, acid taste/acid smell slightly unpleasant: 3
  Flavor judgment: number of panels who judged acid taste/acid smell quality the highest: 2
  N: number of panels, irritation of acid reduced to give a mild acid taste: 6
  X: number of panels, acid taste reduced but piercing odor characteristic to aldehydes unpleasant: 0
5 ppt
  A: number of panels, acid taste/acid smell extreme and cause irritation: 0
  B: number of panels, acid taste/acid smell slightly strong and slightly cause irritation: 1
  C: number of panels, acid taste/acid smell slightly unpleasant: 2
  Flavor judgment: number of panels who judged acid taste/acid smell quality the highest: 4
  N: number of panels, irritation of acid reduced to give a mild acid taste: 7
  X: number of panels, acid taste reduced but piercing odor characteristic to aldehydes unpleasant: 0
10 ppb
  A: number of panels, acid taste/acid smell extreme and cause irritation: 0
  B: number of panels, acid taste/acid smell slightly strong and slightly cause irritation: 1
  C: number of panels, acid taste/acid smell slightly unpleasant: 2
  Flavor judgment: number of panels who judged acid taste/acid smell quality the highest: 0
  N: number of panels, irritation of acid reduced to give a mild acid taste: 2
  X: number of panels, acid taste reduced but piercing odor characteristic to aldehydes unpleasant: 5
20 ppt
  A: number of panels, acid taste/acid smell extreme and cause irritation: 0
  B: number of panels, acid taste/acid smell slightly strong and slightly cause irritation: 0
  C: number of panels, acid taste/acid smell slightly unpleasant: 3
  Flavor judgment: number of panels who judged acid taste/acid smell quality the highest: 3
  N: number of panels, irritation of acid reduced to give a mild acid taste: 6
  X: number of panels, acid taste reduced but piercing odor characteristic to aldehydes unpleasant: 1
50 ppb
  A: number of panels, acid taste/acid smell extreme and cause irritation: 0
  B: number of panels, acid taste/acid smell slightly strong and slightly cause irritation: 0
  C: number of panels, acid taste/acid smell slightly unpleasant: 1
  Flavor judgment: number of panels who judged acid taste/acid smell quality the highest: 0
  N: number of panels, irritation of acid reduced to give a mild acid taste: 2
  X: number of panels, acid taste reduced but piercing odor characteristic to aldehydes unpleasant: 7
100 ppt
  A: number of panels, acid taste/acid smell extreme and cause irritation: 0
  B: number of panels, acid taste/acid smell slightly strong and slightly cause irritation: 1
  C: number of panels, acid taste/acid smell slightly unpleasant: 3
  Flavor judgment: number of panels who judged acid taste/acid smell quality the highest: 0
  N: number of panels, irritation of acid reduced to give a mild acid taste: 4
  X: number of panels, acid taste reduced but piercing odor characteristic to aldehydes unpleasant: 2
500 ppt
  A: number of panels, acid taste/acid smell extreme and cause irritation: 0
  B: number of panels, acid taste/acid smell slightly strong and slightly cause irritation: 2
  C: number of panels, acid taste/acid smell slightly unpleasant: 2
  Flavor judgment: number of panels who judged acid taste/acid smell quality the highest: 0
  N: number of panels, irritation of acid reduced to give a mild acid taste: 4
  X: number of panels, acid taste reduced but piercing odor characteristic to aldehydes unpleasant: 2
